Experimental data reported in the kinase profiling compilation of Christmann-Franck et al. (2016).
Several values for one entry are separate records, joined by “and”; a condition that tells them apart may be missing. Identical values can stand only once.

How the values were obtained:
Experiment in all cases: Caliper, Mobility shift assay off-chip
AKT1 (human) = AKT1 (human) (UniProt P31749)
ALK (human) = ALK (human) (UniProt Q9UM73)
BRSK2 (human) = BRSK2 (human) (UniProt Q8IWQ3)
BTK (human) = BTK (human) (UniProt Q06187)
CDK2 CCNA2 (human) = CDK2 CCNA2 (human) (UniProt P24941+P20248)
CHEK1 (human) = CHEK1 (human) (UniProt O14757)
CSK (human) = CSK (human) (UniProt P41240)
EPHA2 (human) = EPHA2 (human) (UniProt P29317)
EPHA4 (human) = EPHA4 (human) (UniProt P54764)
FGFR1 (human) = FGFR1 (human) (UniProt P11362)
FGFR3 (human) = FGFR3 (human) (UniProt P22607)
IGF1R (human) = IGF1R (human) (UniProt P08069)
IKBKB (human) = IKBKB (human) (UniProt O14920)
KDR (human) = KDR (human) (UniProt P35968)
KIT (human) = KIT (human) (UniProt P10721)
MAP3K7 (human) = MAP3K7 (human) (UniProt O43318)
MAPK11 (human) = MAPK11 (human) (UniProt Q15759)
MAPK12 (human) = MAPK12 (human) (UniProt P53778)
MAPK13 (human) = MAPK13 (human) (UniProt O15264)
MAPK14 (human) = MAPK14 (human) (UniProt Q16539)
MAPK8 (human) = MAPK8 (human) (UniProt P45983)
MAPKAPK2 (human) = MAPKAPK2 (human) (UniProt P49137)
MAPKAPK5 (human) = MAPKAPK5 (human) (UniProt Q8IW41)
NEK2 (human) = NEK2 (human) (UniProt P51955)
NEK6 (human) = NEK6 (human) (UniProt Q9HC98)
PAK4 (human) = PAK4 (human) (UniProt O96013)
PIM1 (human) = PIM1 (human) (UniProt P11309)
PIM2 (human) = PIM2 (human) (UniProt Q9P1W9)
PLK3 (human) = PLK3 (human) (UniProt Q9H4B4)
PRKCA (human) = PRKCA (human) (UniProt P17252)
PRKCG (human) = PRKCG (human) (UniProt P05129)
PRKCI (human) = PRKCI (human) (UniProt P41743)
RAF1 (human) = RAF1 (human) (UniProt P04049)
RIPK2 (human) = RIPK2 (human) (UniProt O43353)
ROCK1 (human) = ROCK1 (human) (UniProt Q13464)
RPS6KA1 KD1 KD2 (human) = RPS6KA1 KD1 KD2 (human) (UniProt Q15418)
RPS6KA5 KD1 KD2 (human) = RPS6KA5 KD1 KD2 (human) (UniProt O75582)
RPS6KB1 (human) = RPS6KB1 (human) (UniProt P23443)
SRC (human) = SRC (human) (UniProt P12931)
TEK (human) = TEK (human) (UniProt Q02763)
ZAP70 (human) = ZAP70 (human) (UniProt P43403)
Chain of ZAP70 (human) (P43403 whole entry, looked up): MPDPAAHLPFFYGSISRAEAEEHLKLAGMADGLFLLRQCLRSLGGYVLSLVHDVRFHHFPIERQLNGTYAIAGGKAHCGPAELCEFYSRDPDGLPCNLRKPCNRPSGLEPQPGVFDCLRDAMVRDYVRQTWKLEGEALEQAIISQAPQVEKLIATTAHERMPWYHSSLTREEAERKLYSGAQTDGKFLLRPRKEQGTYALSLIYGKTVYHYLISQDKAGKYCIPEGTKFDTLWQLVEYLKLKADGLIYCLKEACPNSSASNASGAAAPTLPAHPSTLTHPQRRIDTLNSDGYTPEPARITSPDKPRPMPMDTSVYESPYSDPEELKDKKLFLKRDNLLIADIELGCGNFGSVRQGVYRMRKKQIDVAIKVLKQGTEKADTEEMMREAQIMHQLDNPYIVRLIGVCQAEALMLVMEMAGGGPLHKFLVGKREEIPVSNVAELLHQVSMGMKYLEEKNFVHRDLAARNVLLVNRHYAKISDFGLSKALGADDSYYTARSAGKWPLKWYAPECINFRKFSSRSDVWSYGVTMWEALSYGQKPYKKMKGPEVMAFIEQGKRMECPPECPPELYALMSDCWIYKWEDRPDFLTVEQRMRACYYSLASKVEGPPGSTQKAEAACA

Chain of IKBKB (human) (O14920 whole entry, looked up): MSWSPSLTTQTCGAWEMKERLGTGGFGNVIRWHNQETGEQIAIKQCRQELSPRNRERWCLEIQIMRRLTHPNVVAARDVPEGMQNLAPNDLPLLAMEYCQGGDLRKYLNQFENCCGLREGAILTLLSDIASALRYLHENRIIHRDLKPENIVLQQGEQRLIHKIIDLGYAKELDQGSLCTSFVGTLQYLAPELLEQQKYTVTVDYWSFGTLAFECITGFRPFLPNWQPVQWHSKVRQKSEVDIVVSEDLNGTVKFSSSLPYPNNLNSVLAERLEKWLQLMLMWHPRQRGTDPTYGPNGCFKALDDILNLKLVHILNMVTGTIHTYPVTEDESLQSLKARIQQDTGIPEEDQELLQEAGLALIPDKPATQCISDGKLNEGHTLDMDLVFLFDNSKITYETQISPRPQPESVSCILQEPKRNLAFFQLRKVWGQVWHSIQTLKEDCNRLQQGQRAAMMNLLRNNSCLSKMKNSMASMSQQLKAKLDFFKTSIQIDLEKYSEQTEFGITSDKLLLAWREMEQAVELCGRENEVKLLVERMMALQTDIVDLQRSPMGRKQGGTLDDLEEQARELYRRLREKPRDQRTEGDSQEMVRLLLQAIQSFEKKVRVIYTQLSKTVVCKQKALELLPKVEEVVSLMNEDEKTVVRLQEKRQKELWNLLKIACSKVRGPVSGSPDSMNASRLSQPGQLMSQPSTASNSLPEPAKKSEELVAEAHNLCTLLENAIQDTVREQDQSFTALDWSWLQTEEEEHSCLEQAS
Chain of RPS6KA1 KD1 KD2 (human) (Q15418 whole entry, looked up): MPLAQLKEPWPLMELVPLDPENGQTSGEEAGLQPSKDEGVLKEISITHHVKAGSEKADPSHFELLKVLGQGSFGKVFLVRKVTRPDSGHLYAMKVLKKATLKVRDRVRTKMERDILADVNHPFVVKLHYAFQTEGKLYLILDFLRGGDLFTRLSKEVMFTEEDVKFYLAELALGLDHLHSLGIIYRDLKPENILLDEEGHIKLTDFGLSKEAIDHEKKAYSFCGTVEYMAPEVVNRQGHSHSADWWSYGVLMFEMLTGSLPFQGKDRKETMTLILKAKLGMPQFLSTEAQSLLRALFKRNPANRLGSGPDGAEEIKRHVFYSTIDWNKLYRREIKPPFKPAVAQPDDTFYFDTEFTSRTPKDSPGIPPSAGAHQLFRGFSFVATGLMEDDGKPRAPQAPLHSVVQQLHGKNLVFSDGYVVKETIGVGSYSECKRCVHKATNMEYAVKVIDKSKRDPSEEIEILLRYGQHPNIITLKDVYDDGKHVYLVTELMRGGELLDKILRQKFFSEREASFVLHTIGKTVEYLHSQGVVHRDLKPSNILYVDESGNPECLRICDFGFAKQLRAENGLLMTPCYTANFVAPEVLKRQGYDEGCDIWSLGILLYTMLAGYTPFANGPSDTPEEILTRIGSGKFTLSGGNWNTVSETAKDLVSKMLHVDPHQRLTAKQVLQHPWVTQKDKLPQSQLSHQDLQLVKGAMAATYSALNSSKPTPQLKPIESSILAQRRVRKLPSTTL
Chain of KIT (human) (P10721 whole entry, looked up): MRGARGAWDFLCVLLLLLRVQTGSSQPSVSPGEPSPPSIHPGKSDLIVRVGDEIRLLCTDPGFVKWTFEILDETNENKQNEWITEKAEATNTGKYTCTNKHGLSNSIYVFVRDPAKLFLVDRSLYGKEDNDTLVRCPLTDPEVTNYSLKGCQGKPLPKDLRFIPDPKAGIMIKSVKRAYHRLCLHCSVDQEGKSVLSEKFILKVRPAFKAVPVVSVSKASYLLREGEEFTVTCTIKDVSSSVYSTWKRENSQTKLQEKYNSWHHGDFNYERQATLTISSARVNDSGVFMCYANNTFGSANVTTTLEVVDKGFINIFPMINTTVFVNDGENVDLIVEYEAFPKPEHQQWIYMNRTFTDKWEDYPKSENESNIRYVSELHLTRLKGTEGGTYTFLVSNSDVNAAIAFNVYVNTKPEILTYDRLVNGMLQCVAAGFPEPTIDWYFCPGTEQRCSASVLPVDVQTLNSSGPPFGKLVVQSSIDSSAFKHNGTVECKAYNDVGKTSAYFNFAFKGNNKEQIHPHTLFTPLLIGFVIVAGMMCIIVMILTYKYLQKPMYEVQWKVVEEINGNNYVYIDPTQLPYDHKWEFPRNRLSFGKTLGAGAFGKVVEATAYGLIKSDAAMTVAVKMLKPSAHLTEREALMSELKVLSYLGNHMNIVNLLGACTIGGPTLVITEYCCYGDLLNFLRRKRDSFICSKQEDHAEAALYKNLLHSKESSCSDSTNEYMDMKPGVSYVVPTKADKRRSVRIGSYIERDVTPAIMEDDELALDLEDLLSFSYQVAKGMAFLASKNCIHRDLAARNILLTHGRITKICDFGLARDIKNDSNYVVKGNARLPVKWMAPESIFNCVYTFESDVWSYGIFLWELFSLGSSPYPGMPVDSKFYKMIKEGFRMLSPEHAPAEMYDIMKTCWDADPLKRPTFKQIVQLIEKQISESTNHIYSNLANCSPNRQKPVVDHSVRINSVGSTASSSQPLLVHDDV
Chain of FGFR1 (human) (P11362 whole entry, looked up): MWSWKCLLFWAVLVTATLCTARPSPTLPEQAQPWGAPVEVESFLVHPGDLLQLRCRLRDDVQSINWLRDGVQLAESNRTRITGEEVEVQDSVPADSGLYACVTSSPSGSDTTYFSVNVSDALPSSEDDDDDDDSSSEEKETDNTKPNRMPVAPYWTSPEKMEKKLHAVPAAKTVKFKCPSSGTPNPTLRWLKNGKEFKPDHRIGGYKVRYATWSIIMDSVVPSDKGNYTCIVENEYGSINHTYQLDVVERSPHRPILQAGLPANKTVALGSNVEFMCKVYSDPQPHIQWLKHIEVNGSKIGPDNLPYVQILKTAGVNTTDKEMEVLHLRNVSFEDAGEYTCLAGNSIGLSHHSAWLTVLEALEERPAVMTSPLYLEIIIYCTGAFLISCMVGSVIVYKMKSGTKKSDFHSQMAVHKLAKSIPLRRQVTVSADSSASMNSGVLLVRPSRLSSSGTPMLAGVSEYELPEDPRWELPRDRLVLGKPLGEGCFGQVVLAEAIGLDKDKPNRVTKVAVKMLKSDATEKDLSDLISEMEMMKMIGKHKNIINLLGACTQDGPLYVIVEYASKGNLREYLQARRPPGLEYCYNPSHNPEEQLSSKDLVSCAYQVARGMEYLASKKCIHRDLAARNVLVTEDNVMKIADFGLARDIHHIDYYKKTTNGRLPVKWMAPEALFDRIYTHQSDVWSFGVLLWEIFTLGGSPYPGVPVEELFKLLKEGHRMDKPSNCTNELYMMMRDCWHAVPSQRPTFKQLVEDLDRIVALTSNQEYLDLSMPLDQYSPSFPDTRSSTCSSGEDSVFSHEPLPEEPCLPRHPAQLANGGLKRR
Chain of PAK4 (human) (O96013 whole entry, looked up): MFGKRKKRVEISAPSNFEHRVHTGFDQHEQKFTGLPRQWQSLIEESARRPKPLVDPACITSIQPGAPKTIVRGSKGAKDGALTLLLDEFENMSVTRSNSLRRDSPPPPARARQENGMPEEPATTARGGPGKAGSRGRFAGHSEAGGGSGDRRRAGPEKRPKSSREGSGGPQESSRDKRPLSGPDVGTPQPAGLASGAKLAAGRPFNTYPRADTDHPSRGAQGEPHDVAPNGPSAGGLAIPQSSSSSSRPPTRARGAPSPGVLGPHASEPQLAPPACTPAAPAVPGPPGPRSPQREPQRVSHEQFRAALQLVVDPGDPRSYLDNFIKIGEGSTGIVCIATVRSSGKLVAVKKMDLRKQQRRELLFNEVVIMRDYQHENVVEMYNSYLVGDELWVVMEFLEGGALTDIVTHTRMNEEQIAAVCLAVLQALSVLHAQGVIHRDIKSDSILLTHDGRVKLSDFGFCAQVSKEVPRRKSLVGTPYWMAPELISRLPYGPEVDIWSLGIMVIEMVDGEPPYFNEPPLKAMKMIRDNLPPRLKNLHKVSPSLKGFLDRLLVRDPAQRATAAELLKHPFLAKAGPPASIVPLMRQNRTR
Chain of RPS6KB1 (human) (P23443 whole entry, looked up): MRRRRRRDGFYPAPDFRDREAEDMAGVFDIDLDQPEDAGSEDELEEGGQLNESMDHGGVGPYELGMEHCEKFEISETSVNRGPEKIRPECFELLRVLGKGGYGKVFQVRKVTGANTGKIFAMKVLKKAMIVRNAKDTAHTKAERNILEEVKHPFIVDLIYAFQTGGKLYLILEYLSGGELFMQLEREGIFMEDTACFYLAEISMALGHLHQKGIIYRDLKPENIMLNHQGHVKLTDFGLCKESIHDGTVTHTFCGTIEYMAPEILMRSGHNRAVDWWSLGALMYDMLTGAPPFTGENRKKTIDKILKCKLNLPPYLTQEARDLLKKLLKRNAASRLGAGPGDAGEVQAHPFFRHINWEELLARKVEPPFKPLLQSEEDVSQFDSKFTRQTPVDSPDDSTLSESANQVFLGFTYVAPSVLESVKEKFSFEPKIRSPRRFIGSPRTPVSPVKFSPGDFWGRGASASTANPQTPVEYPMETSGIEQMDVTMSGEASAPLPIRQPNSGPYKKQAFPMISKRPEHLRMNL

For `Cc1n[nH]c2c1c(=O)n(CCCN)c1ccc(Cl)cc21`, the residual activity (AKT1 (human); compound 1.0 µM) was 102%, the residual activity (ALK (human); compound 1.0 µM) was 116% and the residual activity (BRSK2 (human); compound 1.0 µM) was 18%. For the same compound, the residual activity (BTK (human); compound 1.0 µM) was 95%, the residual activity (CDK2 CCNA2 (human); compound 1.0 µM) was 104% and the residual activity (CHEK1 (human); compound 1.0 µM) was 5%. The residual activity (CSK (human); compound 1.0 µM) was 110%, the residual activity (EPHA2 (human); compound 1.0 µM) was 107% and the residual activity (EPHA4 (human); compound 1.0 µM) was 104%. For the same compound, the residual activity (FGFR1 (human); compound 1.0 µM) was 43%, the residual activity (FGFR3 (human); compound 1.0 µM) was 102% and the residual activity (IGF1R (human); compound 1.0 µM) was 145%. The residual activity (IKBKB (human); compound 1.0 µM) was 104%, the residual activity (KDR (human); compound 1.0 µM) was 95% and the residual activity (KIT (human); compound 1.0 µM) was 112%. The residual activity (MAP3K7 (human); compound 1.0 µM) was 56%, the residual activity (MAPK11 (human); compound 1.0 µM) was 99% and the residual activity (MAPK12 (human); compound 1.0 µM) was 107%. It also gave a residual activity (MAPK13 (human); compound 1.0 µM) of 97%, a residual activity (MAPK14 (human); compound 1.0 µM) of 94% and a residual activity (MAPK8 (human); compound 1.0 µM) of 106%. It also gave a residual activity (MAPKAPK2 (human); compound 1.0 µM) of 88%, a residual activity (MAPKAPK5 (human); compound 1.0 µM) of 80% and a residual activity (NEK2 (human); compound 1.0 µM) of 118%. For the same compound, the residual activity (NEK6 (human); compound 1.0 µM) was 101%, the residual activity (PAK4 (human); compound 1.0 µM) was 69% and the residual activity (PIM1 (human); compound 1.0 µM) was 97%. It also gave a residual activity (PIM2 (human); compound 1.0 µM) of 92%, a residual activity (PLK3 (human); compound 1.0 µM) of 95% and a residual activity (PRKCA (human); compound 1.0 µM) of 107%. The residual activity (PRKCG (human); compound 1.0 µM) was 75%, the residual activity (PRKCI (human); compound 1.0 µM) was 114% and the residual activity (RAF1 (human); compound 1.0 µM) was 106%. For the same compound, the residual activity (RIPK2 (human); compound 1.0 µM) was 93%, the residual activity (ROCK1 (human); compound 1.0 µM) was 66% and the residual activity (RPS6KA1 KD1 KD2 (human); compound 1.0 µM) was 2%. For the same compound, the residual activity (RPS6KA5 KD1 KD2 (human); compound 1.0 µM) was 68%, the residual activity (RPS6KB1 (human); compound 1.0 µM) was 76% and the residual activity (SRC (human); compound 1.0 µM) was 104%. It also gave a residual activity (TEK (human); compound 1.0 µM) of 106% and a residual activity (ZAP70 (human); compound 1.0 µM) of 114%.
`C[C@@H](Nc1nc2c(C#CC3CC3)c[nH]c(=O)c2c2cc(-c3cn[nH]c3)ccc12)C(C)(C)C` gave a residual activity (AKT1 (human); compound 1.0 µM) of 98%, a residual activity (ALK (human); compound 1.0 µM) of 77% and a residual activity (BRSK2 (human); compound 1.0 µM) of 15%. It also gave a residual activity (BTK (human); compound 1.0 µM) of 79%, a residual activity (CDK2 CCNA2 (human); compound 1.0 µM) of 104% and a residual activity (CHEK1 (human); compound 1.0 µM) of 46%. For the same compound, the residual activity (CSK (human); compound 1.0 µM) was 75%, the residual activity (EPHA2 (human); compound 1.0 µM) was 131% and the residual activity (EPHA4 (human); compound 1.0 µM) was 103%. The residual activity (FGFR1 (human); compound 1.0 µM) was 29%, the residual activity (FGFR3 (human); compound 1.0 µM) was 60% and the residual activity (IGF1R (human); compound 1.0 µM) was 85%. The residual activity (IKBKB (human); compound 1.0 µM) was 92%, the residual activity (KDR (human); compound 1.0 µM) was 42% and the residual activity (KIT (human); compound 1.0 µM) was 109%. For the same compound, the residual activity (MAP3K7 (human); compound 1.0 µM) was 90%, the residual activity (MAPK11 (human); compound 1.0 µM) was 110% and the residual activity (MAPK12 (human); compound 1.0 µM) was 106%. It also gave a residual activity (MAPK13 (human); compound 1.0 µM) of 108%, a residual activity (MAPK14 (human); compound 1.0 µM) of 107% and a residual activity (MAPK8 (human); compound 1.0 µM) of 87%. The residual activity (MAPKAPK2 (human); compound 1.0 µM) was 115%, the residual activity (MAPKAPK5 (human); compound 1.0 µM) was 75% and the residual activity (NEK2 (human); compound 1.0 µM) was 116%. For the same compound, the residual activity (NEK6 (human); compound 1.0 µM) was 110%, the residual activity (PAK4 (human); compound 1.0 µM) was 95% and the residual activity (PIM1 (human); compound 1.0 µM) was 107%. It also gave a residual activity (PIM2 (human); compound 1.0 µM) of 99%, a residual activity (PLK3 (human); compound 1.0 µM) of 85% and a residual activity (PRKCA (human); compound 1.0 µM) of 108%. The residual activity (PRKCG (human); compound 1.0 µM) was 95%, the residual activity (PRKCI (human); compound 1.0 µM) was 98% and the residual activity (RAF1 (human); compound 1.0 µM) was 107%. It also gave a residual activity (RIPK2 (human); compound 1.0 µM) of 51%, a residual activity (ROCK1 (human); compound 1.0 µM) of 102% and a residual activity (RPS6KA1 KD1 KD2 (human); compound 1.0 µM) of 20%. For the same compound, the residual activity (RPS6KA5 KD1 KD2 (human); compound 1.0 µM) was 83%, the residual activity (RPS6KB1 (human); compound 1.0 µM) was 45% and the residual activity (SRC (human); compound 1.0 µM) was 83% and 87%. The residual activity (TEK (human); compound 1.0 µM) was 109% and the residual activity (ZAP70 (human); compound 1.0 µM) was 104%.
In the case of `CC(C)(C)c1nc2c3ccc(F)cc3c3c(=O)[nH]ccc3c2[nH]1`, the residual activity (AKT1 (human); compound 10.0 µM) is reported as 39%, the residual activity (ALK (human); compound 10.0 µM) is reported as 26% and the residual activity (BRSK2 (human); compound 10.0 µM) is reported as 1%. For the same compound, the residual activity (BTK (human); compound 10.0 µM) was 83%, the residual activity (CDK2 CCNA2 (human); compound 10.0 µM) was 53% and the residual activity (CHEK1 (human); compound 10.0 µM) was 10%. For the same compound, the residual activity (CSK (human); compound 10.0 µM) was 101%, the residual activity (EPHA2 (human); compound 10.0 µM) was 96% and the residual activity (EPHA4 (human); compound 10.0 µM) was 101%. The residual activity (FGFR1 (human); compound 10.0 µM) was 32%, the residual activity (FGFR3 (human); compound 10.0 µM) was 30% and the residual activity (IGF1R (human); compound 10.0 µM) was 61%. It also gave a residual activity (IKBKB (human); compound 10.0 µM) of 15%, a residual activity (KDR (human); compound 10.0 µM) of 92% and a residual activity (KIT (human); compound 10.0 µM) of 40%. It also gave a residual activity (MAP3K7 (human); compound 10.0 µM) of 12%, a residual activity (MAPK11 (human); compound 10.0 µM) of 25% and a residual activity (MAPK12 (human); compound 10.0 µM) of 46%. For the same compound, the residual activity (MAPK13 (human); compound 10.0 µM) was 46%, the residual activity (MAPK14 (human); compound 10.0 µM) was 51% and the residual activity (MAPK8 (human); compound 10.0 µM) was 10%. It also gave a residual activity (MAPKAPK2 (human); compound 10.0 µM) of 17%, a residual activity (MAPKAPK5 (human); compound 10.0 µM) of 17% and a residual activity (NEK2 (human); compound 10.0 µM) of 96%. The residual activity (NEK6 (human); compound 10.0 µM) was 48%, the residual activity (PAK4 (human); compound 10.0 µM) was 78% and the residual activity (PIM1 (human); compound 10.0 µM) was 49%. It also gave a residual activity (PIM2 (human); compound 10.0 µM) of 36%, a residual activity (PLK3 (human); compound 10.0 µM) of 54% and a residual activity (PRKCA (human); compound 10.0 µM) of 8%. For the same compound, the residual activity (PRKCG (human); compound 10.0 µM) was 21%, the residual activity (PRKCI (human); compound 10.0 µM) was 73% and the residual activity (RAF1 (human); compound 10.0 µM) was 128%. It also gave a residual activity (RIPK2 (human); compound 10.0 µM) of 20%, a residual activity (ROCK1 (human); compound 10.0 µM) of 26% and a residual activity (RPS6KA1 KD1 KD2 (human); compound 10.0 µM) of 68%. It also gave a residual activity (RPS6KA5 KD1 KD2 (human); compound 10.0 µM) of 25%, a residual activity (RPS6KB1 (human); compound 10.0 µM) of 17% and a residual activity (SRC (human); compound 10.0 µM) of 94%. It also gave a residual activity (TEK (human); compound 10.0 µM) of 105% and a residual activity (ZAP70 (human); compound 10.0 µM) of 117%.
